IC50 and Ki data for three compounds are collected here from ChEMBL document CHEMBL1909046, “DrugMatrix in vitro pharmacology data”.

Sequence of D(1A) dopamine receptor (P21728 whole entry): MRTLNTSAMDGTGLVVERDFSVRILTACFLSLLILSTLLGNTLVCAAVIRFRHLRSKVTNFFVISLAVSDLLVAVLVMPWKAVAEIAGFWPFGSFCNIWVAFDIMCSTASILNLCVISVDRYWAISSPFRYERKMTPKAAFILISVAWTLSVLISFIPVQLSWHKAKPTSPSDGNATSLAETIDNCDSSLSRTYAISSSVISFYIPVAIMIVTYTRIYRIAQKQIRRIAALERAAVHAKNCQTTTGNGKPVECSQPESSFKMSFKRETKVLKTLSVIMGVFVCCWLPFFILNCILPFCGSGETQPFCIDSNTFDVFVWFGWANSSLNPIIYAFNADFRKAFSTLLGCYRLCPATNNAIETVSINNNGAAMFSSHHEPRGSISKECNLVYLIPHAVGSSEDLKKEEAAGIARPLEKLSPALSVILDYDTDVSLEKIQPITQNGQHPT
Sequence of Histamine H2 receptor (P25021 whole entry): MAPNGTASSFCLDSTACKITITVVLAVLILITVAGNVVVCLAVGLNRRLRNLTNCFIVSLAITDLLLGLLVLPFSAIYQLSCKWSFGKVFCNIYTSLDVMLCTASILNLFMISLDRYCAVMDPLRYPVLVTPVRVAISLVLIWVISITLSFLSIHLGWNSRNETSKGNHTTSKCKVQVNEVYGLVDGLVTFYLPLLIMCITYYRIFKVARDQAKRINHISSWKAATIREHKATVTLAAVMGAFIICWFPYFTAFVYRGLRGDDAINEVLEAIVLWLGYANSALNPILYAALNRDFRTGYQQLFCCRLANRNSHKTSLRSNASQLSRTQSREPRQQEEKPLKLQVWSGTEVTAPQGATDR
Sequence of Beta-3 adrenergic receptor (P13945 whole entry): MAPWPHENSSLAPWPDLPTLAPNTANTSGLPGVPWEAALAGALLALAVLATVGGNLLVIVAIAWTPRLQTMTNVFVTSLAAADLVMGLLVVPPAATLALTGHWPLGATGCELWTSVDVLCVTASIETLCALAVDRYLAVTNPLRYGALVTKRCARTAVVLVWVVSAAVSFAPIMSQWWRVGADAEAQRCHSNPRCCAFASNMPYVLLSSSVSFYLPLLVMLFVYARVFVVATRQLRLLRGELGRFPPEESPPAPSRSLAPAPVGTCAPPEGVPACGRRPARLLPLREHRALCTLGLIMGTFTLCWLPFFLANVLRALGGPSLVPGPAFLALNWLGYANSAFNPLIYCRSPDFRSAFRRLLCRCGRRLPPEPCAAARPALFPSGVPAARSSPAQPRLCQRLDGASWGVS
Sequence of Cytochrome P450 2D6 (P10635 whole entry): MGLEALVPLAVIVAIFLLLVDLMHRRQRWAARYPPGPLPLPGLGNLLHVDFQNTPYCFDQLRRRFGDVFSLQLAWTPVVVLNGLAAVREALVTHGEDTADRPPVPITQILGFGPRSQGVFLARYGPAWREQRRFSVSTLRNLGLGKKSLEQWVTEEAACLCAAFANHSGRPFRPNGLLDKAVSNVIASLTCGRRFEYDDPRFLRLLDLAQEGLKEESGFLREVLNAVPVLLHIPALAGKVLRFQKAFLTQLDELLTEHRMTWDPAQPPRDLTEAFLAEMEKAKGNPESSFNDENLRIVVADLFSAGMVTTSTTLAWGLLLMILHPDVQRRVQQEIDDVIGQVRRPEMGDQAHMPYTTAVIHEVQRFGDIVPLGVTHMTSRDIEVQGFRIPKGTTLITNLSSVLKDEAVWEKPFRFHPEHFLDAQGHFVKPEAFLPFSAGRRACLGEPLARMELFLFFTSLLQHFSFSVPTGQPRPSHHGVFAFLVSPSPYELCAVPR

One data set deals with T1, Alpha-1B adrenergic receptor (Rattus norvegicus, UniProt P15823).
T1 sequence (P15823 whole entry): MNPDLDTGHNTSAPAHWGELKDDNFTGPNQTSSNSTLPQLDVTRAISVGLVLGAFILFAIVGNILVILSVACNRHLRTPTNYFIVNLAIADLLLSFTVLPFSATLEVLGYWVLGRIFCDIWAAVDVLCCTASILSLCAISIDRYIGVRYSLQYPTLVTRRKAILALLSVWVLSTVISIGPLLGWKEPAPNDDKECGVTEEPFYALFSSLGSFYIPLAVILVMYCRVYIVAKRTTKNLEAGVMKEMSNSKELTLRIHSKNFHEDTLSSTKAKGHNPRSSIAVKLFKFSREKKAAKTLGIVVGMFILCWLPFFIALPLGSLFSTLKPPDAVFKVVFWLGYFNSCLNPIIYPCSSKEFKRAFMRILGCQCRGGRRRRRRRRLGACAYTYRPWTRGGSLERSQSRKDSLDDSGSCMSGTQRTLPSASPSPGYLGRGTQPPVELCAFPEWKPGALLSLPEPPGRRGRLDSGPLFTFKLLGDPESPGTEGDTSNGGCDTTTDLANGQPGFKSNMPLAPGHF
Briefly: DRUGMATRIX: Alpha-1B adrenergic receptor radioligand binding (ligand: prazosin). In kind it is cell membranes, Wistar, Liver, Membrane. As to conditions: Not Active = under 50% inhibition at 10 µM.
Take `COC(=O)[C@H](c1ccccc1Cl)N1CCc2sccc2C1` [CLOPIDOGREL]: the IC50 result was “Not Active”.
On the same count and under the same terms, next, `Brc1ccccc1` [BROMOBENZENE]: “Not Active”; `CCCSc1ccc2nc(NC(=O)OC)[nH]c2c1` [ALBENDAZOLE]: “Not Active”.

Another data set addresses T2, Polyunsaturated fatty acid lipoxygenase ALOX15 (Oryctolagus cuniculus, UniProt P12530).
T2 sequence (P12530 whole entry): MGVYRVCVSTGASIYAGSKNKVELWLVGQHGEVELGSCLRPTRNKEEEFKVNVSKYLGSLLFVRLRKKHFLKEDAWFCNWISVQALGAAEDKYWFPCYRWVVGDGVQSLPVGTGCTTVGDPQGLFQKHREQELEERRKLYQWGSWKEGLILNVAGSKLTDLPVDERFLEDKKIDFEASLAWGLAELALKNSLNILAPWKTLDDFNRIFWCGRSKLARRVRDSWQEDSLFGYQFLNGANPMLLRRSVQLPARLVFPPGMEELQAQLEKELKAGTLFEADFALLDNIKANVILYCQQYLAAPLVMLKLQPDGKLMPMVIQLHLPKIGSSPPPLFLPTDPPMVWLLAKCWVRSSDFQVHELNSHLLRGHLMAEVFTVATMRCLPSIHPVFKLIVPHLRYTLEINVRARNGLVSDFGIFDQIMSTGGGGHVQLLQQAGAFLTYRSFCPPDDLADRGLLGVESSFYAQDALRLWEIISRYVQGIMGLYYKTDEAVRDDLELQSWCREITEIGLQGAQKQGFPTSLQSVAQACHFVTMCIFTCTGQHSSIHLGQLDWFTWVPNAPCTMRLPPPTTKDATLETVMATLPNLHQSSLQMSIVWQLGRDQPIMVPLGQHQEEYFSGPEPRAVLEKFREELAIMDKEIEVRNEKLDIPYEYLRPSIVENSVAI
Put plainly: biochemical. It counts as tissue-based, Reticulocytes. Conditions: reticulocytes.
Consider `COC(=O)[C@H](c1ccccc1Cl)N1CCc2sccc2C1` [CLOPIDOGREL], for which the IC50 entry is listed as “Not Active”.
In the case of `Brc1ccccc1` [BROMOBENZENE], the IC50 entry is given as “Not Active”.
Turning to `CCCSc1ccc2nc(NC(=O)OC)[nH]c2c1` [ALBENDAZOLE], the IC50 result was “Not Active”.

In a further data set the target is 5-hydroxytryptamine receptor 2B (Homo sapiens, UniProt P41595). Further: in other assays of this panel Not Active means under 50% inhibition at 10 µM.
Sequence of 5-hydroxytryptamine receptor 2B (P41595 whole entry): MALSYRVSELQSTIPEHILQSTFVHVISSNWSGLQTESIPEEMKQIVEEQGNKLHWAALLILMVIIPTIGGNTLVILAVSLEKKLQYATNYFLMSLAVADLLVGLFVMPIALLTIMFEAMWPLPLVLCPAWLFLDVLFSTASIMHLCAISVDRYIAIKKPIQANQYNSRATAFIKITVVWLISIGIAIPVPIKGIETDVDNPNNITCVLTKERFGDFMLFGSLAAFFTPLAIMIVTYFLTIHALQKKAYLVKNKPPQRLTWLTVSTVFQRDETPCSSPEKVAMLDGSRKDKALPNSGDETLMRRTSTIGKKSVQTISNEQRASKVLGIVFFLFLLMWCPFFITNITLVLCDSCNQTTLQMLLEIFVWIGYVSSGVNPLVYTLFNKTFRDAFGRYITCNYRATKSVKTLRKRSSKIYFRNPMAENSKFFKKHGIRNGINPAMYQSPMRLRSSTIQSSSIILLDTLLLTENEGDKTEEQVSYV
Experiment: not given
It counts as cell membranes, CHO-K1, Membrane. Conditions: cho-k1.
For the compound `COC(=O)[C@H](c1ccccc1Cl)N1CCc2sccc2C1` [CLOPIDOGREL], the IC50 result is given as “Not Active”.
With `Brc1ccccc1` [BROMOBENZENE], the IC50 result is reported as “Not Active”.
The same measure, in the same setting: with `CCCSc1ccc2nc(NC(=O)OC)[nH]c2c1` [ALBENDAZOLE] the entry was “Not Active”.

A further data set concerns the target D(1A) dopamine receptor (Homo sapiens, UniProt P21728). Put plainly: DRUGMATRIX: Dopamine D1 radioligand binding (ligand: [3H] SCH-23390). It counts as cell membranes, CHO, Membrane. Conditions: cho; Not Active = under 50% inhibition at 10 µM.
In the case of `COC(=O)[C@H](c1ccccc1Cl)N1CCc2sccc2C1` [CLOPIDOGREL], the IC50 entry is recorded as “Not Active”.
With `Brc1ccccc1` [BROMOBENZENE], the IC50 entry is “Not Active”.
The same measure, in the same setting: with `CCCSc1ccc2nc(NC(=O)OC)[nH]c2c1` [ALBENDAZOLE] the entry was “Not Active”.

Another data set deals with Cytochrome P450 2E1 (Homo sapiens, UniProt P05181).
Sequence of Cytochrome P450 2E1 (P05181 whole entry): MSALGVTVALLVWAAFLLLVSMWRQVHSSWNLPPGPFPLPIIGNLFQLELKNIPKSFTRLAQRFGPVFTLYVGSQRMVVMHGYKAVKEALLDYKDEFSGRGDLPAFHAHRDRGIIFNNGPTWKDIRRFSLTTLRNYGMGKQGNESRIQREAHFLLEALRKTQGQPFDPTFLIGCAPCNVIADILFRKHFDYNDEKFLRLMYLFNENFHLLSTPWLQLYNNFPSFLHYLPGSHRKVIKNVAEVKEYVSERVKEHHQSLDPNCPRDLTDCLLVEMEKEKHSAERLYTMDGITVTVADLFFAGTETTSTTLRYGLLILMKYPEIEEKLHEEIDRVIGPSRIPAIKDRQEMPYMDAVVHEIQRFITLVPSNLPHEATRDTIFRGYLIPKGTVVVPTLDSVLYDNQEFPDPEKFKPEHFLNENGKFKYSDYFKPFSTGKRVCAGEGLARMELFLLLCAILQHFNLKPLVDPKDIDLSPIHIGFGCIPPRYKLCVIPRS
Experiment: not given
Conditions: bti-tn-5b1-4.
For the compound `COC(=O)[C@H](c1ccccc1Cl)N1CCc2sccc2C1` [CLOPIDOGREL], the IC50 entry was “Not Active” and the Ki entry is recorded as “Not Active”.
As for `Brc1ccccc1` [BROMOBENZENE], the IC50 result is “Not Active” and the Ki entry was “Not Active”.
Consider `CCCSc1ccc2nc(NC(=O)OC)[nH]c2c1` [ALBENDAZOLE], for which the IC50 entry is reported as “Not Active” and the Ki result is “Not Active”.

Test system in another data set: not listed separately
Briefly: DRUGMATRIX: Calcium Channel Type L, Benzothiazepine radioligand binding (ligand: [3H] Diltiazem). In kind it is cell membranes, Rattus norvegicus, Wistar, Brain, Membrane. As to conditions: Not Active = under 50% inhibition at 10 µM.
On to `COC(=O)[C@H](c1ccccc1Cl)N1CCc2sccc2C1` [CLOPIDOGREL], for which the IC50 result is “Not Active” and the Ki entry is listed as “Not Active”.
For the compound `Brc1ccccc1` [BROMOBENZENE], the IC50 entry is recorded as “Not Active” and the Ki result is listed as “Not Active”.
For the compound `CCCSc1ccc2nc(NC(=O)OC)[nH]c2c1` [ALBENDAZOLE], the IC50 result is “Not Active” and the Ki result is given as “Not Active”.

The target in a further data set is 5-hydroxytryptamine receptor 6 (Homo sapiens, UniProt P50406). Further: in other assays of this panel Not Active means under 50% inhibition at 10 µM.
Sequence of 5-hydroxytryptamine receptor 6 (P50406 whole entry): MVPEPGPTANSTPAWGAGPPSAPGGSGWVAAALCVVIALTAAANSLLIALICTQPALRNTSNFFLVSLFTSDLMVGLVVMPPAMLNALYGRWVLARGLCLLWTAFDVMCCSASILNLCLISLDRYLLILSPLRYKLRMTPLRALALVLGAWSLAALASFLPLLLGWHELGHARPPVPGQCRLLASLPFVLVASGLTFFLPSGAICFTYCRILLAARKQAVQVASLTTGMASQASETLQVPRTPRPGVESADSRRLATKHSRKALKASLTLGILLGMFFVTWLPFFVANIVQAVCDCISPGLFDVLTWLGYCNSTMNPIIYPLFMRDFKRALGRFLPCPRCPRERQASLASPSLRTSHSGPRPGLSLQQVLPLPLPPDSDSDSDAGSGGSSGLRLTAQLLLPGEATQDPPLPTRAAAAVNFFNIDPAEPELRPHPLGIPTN
Experiment: not given
Conditions: hela. In kind it is cell membranes, HeLa, Membrane.
Turning to `COC(=O)[C@H](c1ccccc1Cl)N1CCc2sccc2C1` [CLOPIDOGREL], the IC50 entry is listed as “Not Active”.
On the same count and under the same terms, with `Brc1ccccc1` [BROMOBENZENE] the entry was “Not Active”; with `CCCSc1ccc2nc(NC(=O)OC)[nH]c2c1` [ALBENDAZOLE], “Not Active”.

A further data set has as its target Histamine H2 receptor (Homo sapiens, UniProt P25021). Further: in other assays of this panel Not Active means under 50% inhibition at 10 µM.
Experiment: not given
It counts as cell membranes, CHO-K1, Membrane. As to conditions: cho-k1.
For `COC(=O)[C@H](c1ccccc1Cl)N1CCc2sccc2C1` [CLOPIDOGREL], the IC50 result was “Not Active”.
For `Brc1ccccc1` [BROMOBENZENE], the IC50 entry is reported as “Not Active”.
Still for that read-out and setting: with `CCCSc1ccc2nc(NC(=O)OC)[nH]c2c1` [ALBENDAZOLE] the entry was “Not Active”.

A further data set addresses Cytochrome P450 2D6 (Homo sapiens, UniProt P10635).
Experiment: not given
Conditions: bti-tn-5b1-4.
For the compound `COC(=O)[C@H](c1ccccc1Cl)N1CCc2sccc2C1` [CLOPIDOGREL], the IC50 result was “Not Active” and the Ki result is reported as “Not Active”.
In the case of `Brc1ccccc1` [BROMOBENZENE], the IC50 entry is on record as “Not Active” and the Ki result is reported as “Not Active”.
`CCCSc1ccc2nc(NC(=O)OC)[nH]c2c1` [ALBENDAZOLE]: the IC50 result is “Not Active” and the Ki entry is “Not Active”.

Test system in a further data set: not listed separately
Briefly: DRUGMATRIX: GABAA, Chloride Channel, TBOB radioligand binding (ligand: [3H] TBOB). As to conditions: Not Active = under 50% inhibition at 10 µM. In kind it is cell membranes, Rattus norvegicus, Wistar, Cerebral cortex, Membrane.
In the case of `COC(=O)[C@H](c1ccccc1Cl)N1CCc2sccc2C1` [CLOPIDOGREL], the IC50 result is listed as “Not Active” and the Ki result is recorded as “Not Active”.
`Brc1ccccc1` [BROMOBENZENE]: the IC50 result was “Not Active” and the Ki result was “Not Active”.
In the case of `CCCSc1ccc2nc(NC(=O)OC)[nH]c2c1` [ALBENDAZOLE], the IC50 entry was “Not Active” and the Ki result was “Not Active”.

A further data set has as its target Beta-3 adrenergic receptor (Homo sapiens, UniProt P13945). Briefly: DRUGMATRIX: Adrenergic beta3 radioligand binding (ligand: [125I] Cyanopindolol). It counts as cell membranes, HEK293, Membrane. As to conditions: hek293; Not Active = under 50% inhibition at 10 µM.
With `COC(=O)[C@H](c1ccccc1Cl)N1CCc2sccc2C1` [CLOPIDOGREL], the IC50 result was “Not Active”.
Regarding `Brc1ccccc1` [BROMOBENZENE], the IC50 result was “Not Active”.
`CCCSc1ccc2nc(NC(=O)OC)[nH]c2c1` [ALBENDAZOLE]: the IC50 entry is listed as “Not Active”.

The target of a further data set is T3, C-X-C chemokine receptor type 2 (Homo sapiens, UniProt P25025). Further: in other assays of this panel Not Active means under 50% inhibition at 10 µM.
T3 sequence (P25025 whole entry): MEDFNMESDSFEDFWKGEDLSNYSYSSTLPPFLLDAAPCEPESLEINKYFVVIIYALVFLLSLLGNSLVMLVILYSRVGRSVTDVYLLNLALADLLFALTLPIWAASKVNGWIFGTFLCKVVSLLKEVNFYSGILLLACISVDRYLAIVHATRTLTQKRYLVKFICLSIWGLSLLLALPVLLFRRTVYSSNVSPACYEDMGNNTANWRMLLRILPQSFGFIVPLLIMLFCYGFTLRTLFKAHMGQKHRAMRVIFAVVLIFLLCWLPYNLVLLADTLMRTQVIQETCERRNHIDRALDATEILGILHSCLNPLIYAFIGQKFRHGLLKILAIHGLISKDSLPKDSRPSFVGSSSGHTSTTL
Experiment: not given
It counts as cell membranes, Membrane. As to conditions: cho-k1.
For `COC(=O)[C@H](c1ccccc1Cl)N1CCc2sccc2C1` [CLOPIDOGREL], the IC50 result is “Not Active”.
As for `Brc1ccccc1` [BROMOBENZENE], the IC50 result is “Not Active”.
The same measure, in the same setting: next, `CCCSc1ccc2nc(NC(=O)OC)[nH]c2c1` [ALBENDAZOLE]: “Not Active”.

In a further data set the target is T4, Adenosine receptor A3 (Homo sapiens, UniProt P0DMS8).
T4 sequence (P0DMS8 whole entry): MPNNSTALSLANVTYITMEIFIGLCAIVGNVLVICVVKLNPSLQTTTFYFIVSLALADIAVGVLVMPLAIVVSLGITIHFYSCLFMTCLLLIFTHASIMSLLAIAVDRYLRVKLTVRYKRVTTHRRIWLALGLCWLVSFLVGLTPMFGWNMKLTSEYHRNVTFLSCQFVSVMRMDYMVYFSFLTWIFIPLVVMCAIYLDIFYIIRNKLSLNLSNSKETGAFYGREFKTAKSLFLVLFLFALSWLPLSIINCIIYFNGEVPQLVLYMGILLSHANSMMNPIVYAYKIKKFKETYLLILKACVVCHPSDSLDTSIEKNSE
Experiment: not given
It counts as cell membranes, CHO-K1, Membrane. Conditions: cho-k1.
For `COC(=O)[C@H](c1ccccc1Cl)N1CCc2sccc2C1` [CLOPIDOGREL], the IC50 entry was “Not Active”.
As to `Brc1ccccc1` [BROMOBENZENE], the IC50 result was “Not Active”.
The same measure, in the same setting: with `CCCSc1ccc2nc(NC(=O)OC)[nH]c2c1` [ALBENDAZOLE] the entry was “Not Active”.
